In general, viability refers to a read-out of living cells in per cent, often relative to untreated cells.

The data set can be described thus: in vitro. The following applies: human, hek293t cells.
In the case of `O=C1CCc2cc(C(=O)CCl)ccc2N1` [10-M03, 6-(2-chloroacetyl)-1,2,3,4-tetrahydroquinolin-2-one], the viability at 48 h, 25 µM was 1.31%.
With `C=CC(=O)N1CCOCC2(CC2)C1` [2-M15, 1-{5-oxa-8-azaspiro[2.6]nonan-8-yl}prop-2-en-1-one], the viability at 48 h, 25 µM was determined as 180%.
`CC(Cl)C(=O)Nc1ccccc1Sc1ccccc1` (stereo not shown) [6-H10, 2-chloro-N-[2-(phenylsulfanyl)phenyl]propanamide]: the viability at 48 h, 25 µM worked out at 116%.
For `C=CC(=O)N1CCC(C(=O)N2CCC[C@H]2c2ncn[nH]2)CC1` [2-D12, 1-{4-[(2S)-2-(1H-1,2,4-triazol-5-yl)pyrrolidine-1-carbonyl]piperidin-1-yl}prop-2-en-1-one] the value was 81.3%.
As to `CC(Cl)C(=O)NCc1cc(C(F)(F)F)cs1` (stereo not shown) [7-J19, 2-chloro-N-{[4-(trifluoromethyl)thiophen-2-yl]methyl}propanamide], the viability at 48 h, 25 µM amounted to 97.1%.
Take `CCn1cc(CN(C(=O)CCl)[C@H]2CC[C@H](C)CC2)cn1` [5-G16, 2-chloro-N-[(1-ethyl-1H-pyrazol-4-yl)methyl]-N-[(1r,4r)-4-methylcyclohexyl]acetamide]: the viability at 48 h, 25 µM came to 0.893%.
`COc1ccc(CN(C)C(=O)CCl)cc1` [6-M15, 2-chloro-N-[(4-methoxyphenyl)methyl]-N-methylacetamide]: the viability at 48 h, 25 µM was determined as 0.805%.
In the case of `N#CC(=Cc1cccc2ccccc12)C(=O)NCc1ccco1` [8-N15, 2-cyano-N-[(furan-2-yl)methyl]-3-(naphthalen-1-yl)prop-2-enamide], the viability at 48 h, 25 µM was 91%.
For `CC(C)NC(=O)C(C#N)=Cc1ccccc1` [8-L05, 2-cyano-3-phenyl-N-(propan-2-yl)prop-2-enamide], the viability at 48 h, 25 µM was found to be 104%.
Take `C=CC(=O)N1CCC(C(=O)NC2CCc3ncnn3C2)CC1` (stereo not shown) [2-P20, 1-(prop-2-enoyl)-N-{5H,6H,7H,8H-[1,2,4]triazolo[1,5-a]pyridin-6-yl}piperidine-4-carboxamide]: the viability at 48 h, 25 µM was found to be 98%.
Consider `O=C(CCl)N1N=C(c2ccccc2)CC1c1ccccc1` (stereo not shown) [4-I20, 2-chloro-1-(3,5-diphenyl-4,5-dihydro-1H-pyrazol-1-yl)ethan-1-one], for which the viability at 48 h, 25 µM turned out to be 0.141%.
With `NC(=O)c1csc(C(=O)CCl)c1` [10-L06, 5-(2-chloroacetyl)thiophene-3-carboxamide], the viability at 48 h, 25 µM turned out to be 66.2%.
As to `C=CC(=O)NCc1ccccc1-n1ccc(C)n1` [1-J19, N-{[2-(3-methyl-1H-pyrazol-1-yl)phenyl]methyl}prop-2-enamide], the viability at 48 h, 25 µM stood at 126%.
As for `C=CC(=O)N1CCCC1Cn1c(C)nc2ccccc21` (stereo not shown) [1-J05, 1-{2-[(2-methyl-1H-1,3-benzodiazol-1-yl)methyl]pyrrolidin-1-yl}prop-2-en-1-one], the viability at 48 h, 25 µM was 149%.
The value for `O=C(CCl)Cc1ccc(F)cc1` [10-G15, 1-chloro-3-(4-fluorophenyl)propan-2-one] was 73.7%; that for `CC(Cl)C(=O)Nc1ccccc1Cl` (stereo not shown) [4-D11, 2-chloro-N-(2-chlorophenyl)propanamide] was 97.8%; that for `COc1cc(C=C(C#N)C(=O)Nc2ccc(Cl)cc2)cc(OC)c1` [8-K16, N-(4-chlorophenyl)-2-cyano-3-(3,5-dimethoxyphenyl)prop-2-enamide] was 81.7%.
As for `CC(NC(=O)C(C#N)=Cc1cnn(C)c1)c1ccccc1` (stereo not shown) [8-N10, 2-cyano-3-(1-methyl-1H-pyrazol-4-yl)-N-(1-phenylethyl)prop-2-enamide], the viability at 48 h, 25 µM worked out at 97%.
As for `CSc1cccc(-n2c(C)cc(C(=O)CCl)c2C)c1` [10-J16, 2-chloro-1-{2,5-dimethyl-1-[3-(methylsulfanyl)phenyl]-1H-pyrrol-3-yl}ethan-1-one], the viability at 48 h, 25 µM is 0.898%.
For the compound `CC(Cl)C(=O)N1CCc2ccccc21` (stereo not shown) [5-H04, 2-chloro-1-(2,3-dihydro-1H-indol-1-yl)propan-1-one], the viability at 48 h, 25 µM came to 114%.
`N#CC(=Cc1cccc2c1OCCCO2)C(=O)NCc1ccccc1` [9-G05, N-benzyl-2-cyano-3-(3,4-dihydro-2H-1,5-benzodioxepin-6-yl)prop-2-enamide]: the viability at 48 h, 25 µM amounted to 114%.
Consider `O=C(CCl)NCC1(c2ccc(F)cc2)CCCC1` [6-E18, 2-chloro-N-{[1-(4-fluorophenyl)cyclopentyl]methyl}acetamide], for which the viability at 48 h, 25 µM is 5.22%.
On to `C=CC(=O)N1CCC(C(=O)NCc2ccc(C(N)=O)nc2)CC1` [3-N05, 5-({[1-(prop-2-enoyl)piperidin-4-yl]formamido}methyl)pyridine-2-carboxamide], for which the viability at 48 h, 25 µM stood at 59.8%.
For `O=C(CCl)Nc1ccc2oc3ccccc3c2c1` [6-N06, 2-chloro-N-{8-oxatricyclo[7.4.0.0,2,7]trideca-1(9),2(7),3,5,10,12-hexaen-4-yl}acetamide] the value was 2.09%; for `C=CC(NC(=O)CCl)C1CCOCC1` (stereo not shown) [5-N13, 2-chloro-N-[1-(oxan-4-yl)prop-2-en-1-yl]acetamide], 111%; for `CC1CCc2c(sc(NC(=O)CCl)c2C(=O)OC(C)C)C1` (stereo not shown) [4-D07, propan-2-yl 2-(2-chloroacetamido)-6-methyl-4,5,6,7-tetrahydro-1-benzothiophene-3-carboxylate], 73.7%.
The value for `O=C(CCl)Nc1cc(Cl)cc(Cl)c1` [4-K09, 2-chloro-N-(3,5-dichlorophenyl)acetamide] was 1.41%; that for `CC(Cl)C(=O)N1CCCCCC1c1noc(-c2cnn(C)c2)n1` (stereo not shown) [7-C05, 2-chloro-1-{2-[5-(1-methyl-1H-pyrazol-4-yl)-1,2,4-oxadiazol-3-yl]azepan-1-yl}propan-1-one] was 92.8%; that for `CC(NC(=O)CCl)C(c1ccccc1Cl)n1cccn1` (stereo not shown) [7-D20, 2-chloro-N-[1-(2-chlorophenyl)-1-(1H-pyrazol-1-yl)propan-2-yl]acetamide] was 1.01%.
For `CC(Cl)C(=O)N1CCN(CCOc2ccc3c(c2)CCC3)CC1` (stereo not shown) [6-H17, 2-chloro-1-{4-[2-(2,3-dihydro-1H-inden-5-yloxy)ethyl]piperazin-1-yl}propan-1-one], the viability at 48 h, 25 µM came to 3.42%.
`C=CC(=O)Nc1ccc2cc(N(C)C)ccc2c1` [1-E19, N-[6-(dimethylamino)naphthalen-2-yl]prop-2-enamide]: the viability at 48 h, 25 µM was 46.5%.
For `C=CC(=O)N1CCC(C(=O)N[C@@H](C)c2ccc(Cl)s2)CC1` [3-E22, N-[(1S)-1-(5-chlorothiophen-2-yl)ethyl]-1-(prop-2-enoyl)piperidine-4-carboxamide], the viability at 48 h, 25 µM was determined as 65.7%.
Take `CC(Cl)C(=O)Nc1ccc(S(=O)(=O)N2CCCC2)cc1` (stereo not shown) [6-M13, 2-chloro-N-[4-(pyrrolidine-1-sulfonyl)phenyl]propanamide]: the viability at 48 h, 25 µM worked out at 117%.
The value for `COc1cc(CC2CN(C(=O)C(C)Cl)C2)cc(OC)c1` (stereo not shown) [7-H07, 2-chloro-1-{3-[(3,5-dimethoxyphenyl)methyl]azetidin-1-yl}propan-1-one] was 97.3%.
Take `C=CC(=O)NCC1CCCCN1S(C)(=O)=O` (stereo not shown) [1-D17, N-[(1-methanesulfonylpiperidin-2-yl)methyl]prop-2-enamide]: the viability at 48 h, 25 µM stood at 161%.
`COc1ccc(NC(=O)C(C#N)=Cc2ccc(-c3ccccc3)cc2)cc1` [8-D11, 3-{[1,1'-biphenyl]-4-yl}-2-cyano-N-(4-methoxyphenyl)prop-2-enamide]: the viability at 48 h, 25 µM was 103%.
As to `COc1ccc2[nH]c(C)c(C(=O)CCl)c2c1` [10-L05, 2-chloro-1-(5-methoxy-2-methyl-1H-indol-3-yl)ethan-1-one], the viability at 48 h, 25 µM was determined as 14.8%.
For the compound `CCn1c2ccccc2c2cc(NC(=O)C(C)Cl)ccc21` (stereo not shown) [4-E12, 2-chloro-N-(9-ethyl-9H-carbazol-3-yl)propanamide], the viability at 48 h, 25 µM turned out to be 55.6%.
The value for `CC1=C(C#N)C(=O)N(C)C(=O)C1=Cc1ccc(-c2ccccc2Cl)o1` [9-K18, 5-{[5-(2-chlorophenyl)furan-2-yl]methylidene}-1,4-dimethyl-2,6-dioxo-1,2,5,6-tetrahydropyridine-3-carbonitrile] was 126%; that for `N#CC(=Cc1ccc(N2CCCCCC2)cc1)C(=O)NCC1CCCO1` (stereo not shown) [9-H15, 3-[4-(azepan-1-yl)phenyl]-2-cyano-N-[(oxolan-2-yl)methyl]prop-2-enamide] was 71.9%; that for `C=CC(=O)N1CCC(Cn2cnnc2)CC1` [3-P09, 1-{4-[(4H-1,2,4-triazol-4-yl)methyl]piperidin-1-yl}prop-2-en-1-one] was 43.5%.
With `C=CC(=O)NC1CC(=O)N(CC)C1` (stereo not shown) [2-O22, N-(1-ethyl-5-oxopyrrolidin-3-yl)prop-2-enamide], the viability at 48 h, 25 µM worked out at 91.7%.
For `C=CC(=O)NCc1nc2ccccc2c(=O)n1C` [3-J10, N-[(3-methyl-4-oxo-3,4-dihydroquinazolin-2-yl)methyl]prop-2-enamide], the viability at 48 h, 25 µM was found to be 88.6%.
Turning to `CC(Cl)C(=O)NCCS(=O)(=O)c1cccs1` (stereo not shown) [6-N15, 2-chloro-N-[2-(thiophene-2-sulfonyl)ethyl]propanamide], the viability at 48 h, 25 µM came out at 105%.
On to `COC1CCC(N(Cc2cc(C)oc2C)C(=O)CCl)CC1` (stereo not shown) [5-O20, 2-chloro-N-[(2,5-dimethylfuran-3-yl)methyl]-N-(4-methoxycyclohexyl)acetamide], for which the viability at 48 h, 25 µM amounted to 2.21%.
Regarding `CC(Cl)C(=O)NC(C)C(=O)Nc1ccc(-n2cncn2)cc1` (stereo not shown) [7-P07, 2-chloro-N-(1-{[4-(1H-1,2,4-triazol-1-yl)phenyl]carbamoyl}ethyl)propanamide], the viability at 48 h, 25 µM was 98.6%.
For `CC(Cl)C(=O)NCc1nnc2n1-c1ccccc1CC2` (stereo not shown) [6-N14, 2-chloro-N-({4H,5H-[1,2,4]triazolo[4,3-a]quinolin-1-yl}methyl)propanamide] the value was 110%; for `CC(Cl)C(=O)NC(Cn1cncn1)c1ccccc1` (stereo not shown) [7-M09, 2-chloro-N-[1-phenyl-2-(1H-1,2,4-triazol-1-yl)ethyl]propanamide], 90.3%.
The value for `CCNC(=O)C(C#N)=Cc1ccc(OC(F)F)cc1` [8-E05, 2-cyano-3-[4-(difluoromethoxy)phenyl]-N-ethylprop-2-enamide] was 81.4%.

For the origin of these results see article PMC11995724, “Antibiotic target discovery by integrated phenotypic and activity-based profiling of electrophilic fragments” (Cell chemical biology, 2025).
